The source of these data is patent US7838674B2, “Tetracyclic lactame derivatives” (Novartis AG, priority 2007, dated 2010).

In general, pIC50 refers to −log10 of the IC50, conventionally taken in molar units.

The experiment concerns the target T1, MAPKAPK2 enzyme (HIS-MK2, Invitrogen PV4019) (Homo sapiens, UniProt P49137).
T1 construct: His; purchased Invitrogen PV4019
As to the kind of experiment: Alternative MAPKAPK2 assay (Caliper microfluidic mobility shift, HSP27-peptide). The experiment is classed as biochemical. The following applies: HIS-MK2 0.013 nM, ATP 10 μM, 60 min at 30° C.

pIC50: −log10 of the molar value. Counter-ions that a name gives are not always drawn.

T1 sequence (P49137 whole entry): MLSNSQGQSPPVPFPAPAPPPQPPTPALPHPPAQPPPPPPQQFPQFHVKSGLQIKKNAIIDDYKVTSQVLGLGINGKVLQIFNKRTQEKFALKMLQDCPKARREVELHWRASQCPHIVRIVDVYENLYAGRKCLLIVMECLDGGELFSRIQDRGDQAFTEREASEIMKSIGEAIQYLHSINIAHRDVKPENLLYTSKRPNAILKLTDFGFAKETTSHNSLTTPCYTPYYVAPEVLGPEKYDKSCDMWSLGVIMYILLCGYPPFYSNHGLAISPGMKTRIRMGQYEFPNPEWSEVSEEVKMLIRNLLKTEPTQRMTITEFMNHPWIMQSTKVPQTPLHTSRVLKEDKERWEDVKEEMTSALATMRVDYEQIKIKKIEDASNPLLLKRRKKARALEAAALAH

For `O=C1NC2CCC2c2[nH]c3c(c21)CCc1cnc(-c2cccc(F)c2)cc1-3` (single isomer, unassigned; (+)) [Example 51, (+)-2-(2-Amino-cyclobutyl)-8-(3-fluoro-phenyl)-4,5-dihydro-1H-pyrrolo[2,3-f]isoquinoline-3-carboxylic acid lactam], the pIC50 was 7.55.

For `O=C1NCC2(CC2)c2[nH]c3c(c21)CCc1cnc(-c2ccncc2)cc1-3` [Example 124, 2-(1-Aminomethyl-cyclopropyl)-8-pyridin-4-yl-4,5-dihydro-1H-pyrrolo[2,3-f]isoquinoline-3-carboxylic acid lactam], the pIC50 is 7.26.

Take `CN(C)C1CCN(c2ccc(-c3cc4c(cn3)CCc3c-4[nH]c4c3C(=O)NCC43CC3)cc2C#N)C1` (centres unmarked) [Example 318, 2-(3-Dimethylamino-pyrrolidin-1-yl)-10-spirocyclopropyl-5-(7-oxo-6,7,8,9,10,11-hexahydro-5H-3,8,11-triaza-benzo[a]fluoren-2-yl)-benzonitrile]: the pIC50 is 8.22.

As for `Cc1cncc(-c2cc3c(cn2)CCc2c-3[nH]c3c2C(=O)NC2(CCC2)C3)c1` [Example 102, 2-(1-Amino-cyclobutylmethyl)-8-(5-methyl-pyridin-3-yl)-4,5-dihydro-1H-pyrrolo[2,3-f]isoquinoline-3-carboxylic acid lactam], the pIC50 was 7.21.

Take `CN1CC2(C1)c1[nH]c3c(c1C(=O)NC21CC1)CCc1cnc(-c2ccc(CCCN4CCOCC4)cc2)cc1-3` [Example 260, 2-[3-(1-Amino-cyclopropyl)-1-methyl-azetidin-3-yl]-8-[4-(3-morpholin-4-yl-propyl)-phenyl]-4,5-dihydro-1H-pyrrolo[2,3-f]isoquinoline-3-carboxylic acid lactam]: the pIC50 was over 8.52.

Regarding `COc1cccc(-c2ncc3c(n2)-c2c(c4c(n2C)CC2(CNC2)NC4=O)CC3)c1` [Example 137, 2-(3-Amino-azetidin-3-ylmethyl)-8-(3-methoxy-phenyl)-1-methyl-4,5-dihydro-1H-1,7,9-triaza-cyclopenta[a]naphthalene-3-carboxylic acid lactam hydrochloride], the pIC50 is 7.31.

With `N#Cc1ccc(-c2cc3c(cn2)CCc2c-3[nH]c3c2C(=O)NC2(CC2)C3)cc1` [Example 60, 2-(1-Amino-cyclopropylmethyl)-8-(4-cyano-phenyl)-4,5-dihydro-1H-pyrrolo[2,3-f]isoquinoline-3-carboxylic acid lactam], the pIC50 was 7.12.

Consider `COc1cc(OC)cc(-c2cc3c(cn2)CCc2c4c(n(C)c2-3)CC2(CNC2)NC4=O)c1` [Example 143, 2-(3-Amino-azetidin-3-ylmethyl)-8-(3,5-dimethoxy-phenyl)-1-methyl-4,5-dihydro-1H-pyrrolo[2,3-f]isoquinoline-3-carboxylic acid lactam hydrochloride], for which the pIC50 is 7.16.

Take `O=C1NCC2(CNC2)c2[nH]c3c(c21)CCc1cnc(-c2ccc(CN4CCOCC4)c(F)c2)nc1-3` [Example 326, 2-(3-Aminomethyl-azetidin-3-yl)-8-(3-fluoro-4-morpholin-4-ylmethyl-phenyl)-4,5-dihydro-1H-1,7,9-triaza-cyclopenta[a]naphthalene-3-carboxylic acid lactam]: the pIC50 is 7.82.

With `CN1CCN(c2ccc(-c3cc4c(cn3)CCc3c-4[nH]c4c3C(=O)NC3(CC3)C4)cc2)CC1` [Example 217, 2-(1-Amino-cyclopropylmethyl)-8-(4-methyl-piperazin-1-yl-phenyl)-4,5-dihydro-1H-pyrrolo[2,3-f]isoquinoline-3-carboxylic acid lactam], the pIC50 was 7.03.

For `COc1ccc(-c2cc3c(cn2)CCc2c-3[nH]c3c2C(=O)N[C@@H]2CC[C@H]32)cc1` (racemic) [Example 50, (+)-2-(2-Amino-cyclobutyl)-8-(4-methoxy-phenyl)-4,5-dihydro-1H-pyrrolo[2,3-f]isoquinoline-3-carboxylic acid lactam], the pIC50 was 7.68.

`COc1ccc(-c2ncc3c(n2)-c2[nH]c4c(c2CC3)C(=O)NC2(CC2)C42CNC2)cc1` [Example 214, 2-[3-(1-Amino-cyclopropyl)-azetidin-3-yl]-8-(4-methoxy-phenyl)-4,5-dihydro-1H-1,7,9-triaza-cyclopenta[a]naphthalene-3-carboxylic acid lactam hydrochloride]: the pIC50 is 8.22.

In the case of `O=C1NCC2(CC2)c2[nH]c3c(c21)CCc1cnc(-c2cncc(N4CCOCC4)c2)cc1-3` [Example 302, 2-(5-Morpholin-4-yl-pyridin-3-yl)-10-spirocyclopropyl-5,6,8,9,10,11-hexahydro-3,8,11-triaza-benzo[a]fluoren-7-one], the pIC50 is 7.66.

As for `COc1ccc(-c2ncc3c(n2)-c2[nH]c4c(c2CC3)C(=O)NC2(CC2)C42CN(C)C2)cc1` [Example 215, 2-[3-(1-Amino-cyclopropyl)-1-methyl-azetidin-3-yl]-8-(4-methoxy-phenyl)-4,5-dihydro-1H-1,7,9-triaza-cyclopenta[a]naphthalene-3-carboxylic acid lactam], the pIC50 is 7.74.

For the molecule `O=C1NC2(CC2)Cc2[nH]c3c(c21)CCc1cnc(-c2ccc(CN4CCCCC4)cc2)cc1-3` [Example 65, 2-(1-Amino-cyclopropylmethyl)-8-(4-piperidin-1-ylmethyl-phenyl)-4,5-dihydro-1H-pyrrolo[2,3-f]isoquinoline-3-carboxylic acid lactam], the pIC50 was 7.34.

In the case of `CCN1CC2(C1)c1[nH]c3c(c1C(=O)NC21CC1)CCc1cnc(-c2ccc(OC(C)C)nc2)cc1-3` [Example 250], the pIC50 was over 8.52.

As to `O=C1NC2(CCC2)Cc2[nH]c3c(c21)CCc1cnc(-c2cccnc2)cc1-3` [Example 104, 2-(1-Amino-cyclobutylmethyl)-8-pyridin-3-yl-4,5-dihydro-1H-pyrrolo[2,3-f]isoquinoline-3-carboxylic acid lactam], the pIC50 is 7.17.

`CN1CC2(C1)c1[nH]c3c(c1C(=O)NC21CC1)CCc1cnc(-c2ccccc2F)cc1-3` [Example 256, 2-[3-(1-Amino-cyclopropyl)-1-methyl-azetidin-3-yl]-8-(2-fluoro-phenyl)-4,5-dihydro-1H-pyrrolo[2,3-f]isoquinoline-3-carboxylic acid lactam]: the pIC50 is over 8.52.

With `Cn1c2c(c3c1-c1cc(-c4cccc(C#N)c4)ncc1CC3)C(=O)NC1(CNC1)C2` [Example 132, 2-(3-Amino-azetidin-3-ylmethyl)-8-(3-cyano-phenyl)-1-methyl-4,5-dihydro-1H-pyrrolo[2,3-f]isoquinoline-3-carboxylic acid lactam hydrochloride], the negative logarithm of the IC50 (pIC50) is 7.85.

On to `N#Cc1ccc(-c2cc3c(cn2)CCc2c-3[nH]c3c2C(=O)NC2(CC2)C3)cn1` [Example 63, 2-(1-Amino-cyclopropylmethyl)-8-(6-cyano-pyridin-3-yl)-4,5-dihydro-1H-pyrrolo[2,3-f]isoquinoline-3-carboxylic acid lactam], for which the pIC50 is 7.05.

As for `N#Cc1cc(-c2cc3c(cn2)CCc2c-3[nH]c3c2C(=O)NCC32CC2)ccc1N1CCN(CCO)CC1` [Example 315, 2-[4-(2-Hydroxy-ethyl)-piperazin-1-yl]-10-spirocyclopropyl-5-(7-oxo-6,7,8,9,10,11-hexahydro-5H-3,8,11-triaza-benzo[a]fluoren-2-yl)-benzonitrile], the pIC50 was 8.05.

Take `O=C1NC2(CC2)Cc2[nH]c3c(c21)CCc1cnc(-c2ccc(N4CCNCC4)cc2)cc1-3` [Example 216, 2-(1-Amino-cyclopropylmethyl)-8-(4-piperazin-1-yl-phenyl)-4,5-dihydro-1H-pyrrolo[2,3-f]isoquinoline-3-carboxylic acid lactam hydrochloride]: the pIC50 is 7.74.

With `O=C1NCC2(CC2)c2[nH]c3c(c21)CCc1cnc(-c2cncc(F)c2)cc1-3` [Example 112, 2-(1-Aminomethyl-cyclopropyl)-8-(5-fluoro-pyridin-3-yl)-4,5-dihydro-1H-pyrrolo[2,3-f]isoquinoline-3-carboxylic acid lactam], the pIC50 is 8.05.

Turning to `Cc1ccc(-c2cc3c(cn2)CCc2c-3[nH]c3c2C(=O)NC2(CC2)C3)cn1` [Example 69, 2-(1-Amino-cyclopropylmethyl)-8-(6-methyl-pyridin-3-yl)-4,5-dihydro-1H-pyrrolo[2,3-f]isoquinoline-3-carboxylic acid lactam], the pIC50 is 7.46.

For `Cc1ccc(-c2cc3c(cn2)CCc2c-3[nH]c3c2C(=O)NC2(CC2)C32CC2)cn1` [Example 193, 2-(1′-Amino-bicyclopropyl-1-yl)-8-(6-methyl-pyridin-3-yl)-4,5-dihydro-1H-pyrrolo[2,3-f]isoquinoline-3-carboxylic acid lactam], the pIC50 is 7.92.

Regarding `CCN1CC2(C1)c1[nH]c3c(c1C(=O)NC21CC1)CCc1cnc(-c2ccc(OC)nc2)cc1-3` [Example 251, 2-[3-(1-Amino-cyclopropyl)-1-ethyl-azetidin-3-yl]-8-(6-methoxy-pyridin-3-yl)-4,5-dihydro-1H-pyrrolo[2,3-f]isoquinoline-3-carboxylic acid lactam], the pIC50 was 8.52.

For the molecule `O=C1NC2(CC2)C2(CNC2)c2[nH]c3c(c21)CCc1cnc(-c2cccc(F)c2)cc1-3` [Example 180, 2-[3-(1-Amino-cyclopropyl)-azetidin-3-yl]-8-(3-fluoro-phenyl)-4,5-dihydro-1H-pyrrolo[2,3-f]isoquinoline-3-carboxylic acid lactam hydrochloride], the pIC50 was over 8.52.

`CC(C)Oc1ccc(-c2cc3c(cn2)CCc2c-3[nH]c3c2C(=O)NC2(CC2)C3)cn1` [Example 235, 2-(1-Amino-cyclopropylmethyl)-8-(6-isopropoxy-pyridin-3-yl)-4,5-dihydro-1H-pyrrolo[2,3-f]isoquinoline-3-carboxylic acid lactam]: the pIC50 was 7.19.

For the molecule `CN1CC2(C1)c1c(c3c(n1C)-c1cc(-c4cccc(F)c4)ncc1CC3)C(=O)NC21CC1` [Example 210, 2-[3-(1-Amino-cyclopropyl)-1-methyl-azetidin-3-yl]-8-(3-fluoro-phenyl)-1-methyl-4,5-dihydro-1H-pyrrolo[2,3-f]isoquinoline-3-carboxylic acid lactam], the pIC50 was 7.35.
